From patent US20250114374A1, “BCL-2 INHIBITORS” (Newave Pharmaceutical Inc., priority 2021, published 2025)
Like-named read-outs stand apart in the source and are kept apart here.

Legend:
[1] = tested on: RS4; 11 with G101V mutation; test: In vitro anti-proliferation assay (ATPlite luminescence) in BCL-2-dependent ALL cell line RS4;11 with G101V mutation; type: cell-based; conditions: read-out: RS411-G101V IC50
Method in brief: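 RS4;11 G101V cells at about 1×10^4 per well were exposed to a range of compound concentrations for about 72 h in medium with 10% FBS. Cellular ATP was measured by ATPlite luminescence after lysis, and IC50 was derived from the dose-response.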

[2] = tested on: RS4; 11 cells; conditions: cited from earlier work
[3] = tested on: CLL; conditions: read-out: average EC50, apoptosis; cited from earlier work
[4] = tested on: RS4; 11 xenografts; conditions: single dose of 100 mg/kg; cited from earlier work
[5] = tested on: DoHH2, Granta-519 xenografts; conditions: single agent or in combination with Bendamustine and other agents; cited from earlier work
[6] = tested on: CLL who have 17p deletion; conditions: Human Phase I and II, CLL with 17p deletion; cited from earlier work
[7] = molecular target: Mcl-1 (Homo sapiens, UniProt Q07820); conditions: cited from earlier work
[8] = molecular target: T1, Bcl-w (Homo sapiens, UniProt Q92843); conditions: cited from earlier work
T1 sequence (Q92843 1-193): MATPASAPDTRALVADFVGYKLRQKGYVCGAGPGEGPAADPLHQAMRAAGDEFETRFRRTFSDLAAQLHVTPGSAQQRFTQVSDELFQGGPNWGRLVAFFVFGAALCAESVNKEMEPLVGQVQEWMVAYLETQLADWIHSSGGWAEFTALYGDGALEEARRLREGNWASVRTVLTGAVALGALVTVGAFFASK

[9] = tested on: xenograft models of small-cell lung cancer and acute lymphoblastic leukemia; conditions: oral administration, alone; cited from earlier work
[10] = tested on: circulating platelets; conditions: cited from earlier work
[11] = cited from earlier work
[12] = tested on: cells from lymphoma and small-cell lung carcinoma lines, primary patient-derived cells; conditions: single agent; cited from earlier work
[13] = cellular anti-proliferative IC50, about 72 hours, medium with 10% FBS, ATPlite

Mcl-1, sequence (Q07820 whole entry): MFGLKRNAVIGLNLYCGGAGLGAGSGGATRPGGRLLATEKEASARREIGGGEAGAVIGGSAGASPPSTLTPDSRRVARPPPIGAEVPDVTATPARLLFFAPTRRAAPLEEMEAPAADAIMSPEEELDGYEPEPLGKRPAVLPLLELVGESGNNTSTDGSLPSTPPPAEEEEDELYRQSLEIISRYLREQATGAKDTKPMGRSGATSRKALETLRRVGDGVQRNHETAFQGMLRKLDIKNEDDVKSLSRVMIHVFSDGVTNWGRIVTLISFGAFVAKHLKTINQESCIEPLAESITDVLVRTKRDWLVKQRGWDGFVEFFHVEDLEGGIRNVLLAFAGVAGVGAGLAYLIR

Question: Which IC50 ([1]; Homo sapiens, RS4-11, 72 h) does the source give for `CC1(C)CCC(CN2CCN(c3ccc(C(=O)NS(=O)(=O)c4ccc(NCC5CCOCC5)c([N+](=O)[O-])c4)c(Oc4cnc5[nH]ccc5c4)c3)CC2)=C(c2ccc(Cl)cc2)C1` [ABT-199] here?
Answer: The IC50 was 783 nM.

Question: And the EC50 ([2]; RS4, 11 cells)?
Answer: The EC50 was 8 nM.

Question: And the “apoptosis in RS4; 11 cells” value ([2]; cytochrome c release, caspase activation, accumulation of sub-G0/G1 DNA)?
Answer: Its value is “rapid apoptosis”.

Question: What about the EC50 [3] of the same compound?
Answer: Its EC50 is 3 nM.

Question: What about the “maximal tumor growth inhibition” value [4] of the same compound?
Answer: Its value is 95%.

Question: And the tumor growth delay [4]?
Answer: The tumor growth delay was 152%.

Question: What about the xenograft growth [5] of the same compound?
Answer: The xenograft growth was “inhibits xenograft growth”.

Question: And the clinical efficacy [6]?
Answer: The clinical efficacy was “highly efficacious”.

Question: And the “activity to Mcl-1” value [7]?
Answer: Its value is “no activity”.

Question: Which Ki [8] does the source give for `CC1(C)CCC(c2ccc(Cl)cc2)=C(CN2CCN(c3ccc(C(=O)NS(=O)(=O)c4ccc(N[C@H](CCN5CCOCC5)CSc5ccccc5)c(S(=O)(=O)C(F)(F)F)c4)cc3)CC2)C1` [ABT-263] here?
Answer: The Ki was at most 1 nM.

Question: What about the tumor regression [9] of the same compound?
Answer: Its tumor regression is “complete tumor regressions”.

Question: What about the “number of circulating platelets” value ([10]; clinical trial) of the same compound?
Answer: Its value is “rapid, concentration-dependent decrease”.

Question: And the dose-limiting toxicity ([10]; single-agent treatment in patients)?
Answer: Its dose-limiting toxicity is “thrombocytopenia”.

Question: With `CN(C)CC[C@H](CSc1ccccc1)Nc1ccc(S(=O)(=O)NC(=O)c2ccc(N3CCN(Cc4ccccc4-c4ccc(Cl)cc4)CC3)cc2)cc1[N+](=O)[O-]` [ABT-737] as the compound, how does the aqueous solubility [11] read?
Answer: Its aqueous solubility is “low”.

Question: And the cell killing [12]?
Answer: Its cell killing is “single-agent-mechanism-based killing”.

Question: Which IC50 [1, 13] does the source give for `CNc1ccc(CN2CCN(C3CC4(CCN(c5ccc(C(=O)NS(=O)(=O)c6cc7c(c([N+](=O)[O-])c6)N[C@H](C6CCOCC6)CO7)c(N6c7cc8cc[nH]c8nc7O[C@H]7COCC[C@@H]76)c5)CC4)C3)[C@H](c3ccccc3OC(C)C)C2)cn1` [Example 259, 2-[(3R,8S)-2,5-dioxa-9,15,17-triazatetracyclo[8.7.0.0^{3,8}.0^{12,16}]heptadeca-1(10),11,13,16-tetraen-9-yl]-4-{2-[(2R)-2-(2-isopropoxyphenyl)-4-{[6-(methylamino)pyridin-3-yl]methyl}piperazin-1-yl]-7-azaspiro[3.5]nonan-7-yl}-N-[(3R)-5-nitro-3-(oxan-4-yl)-3,4-dihydro-2H-1,4-benzoxazin-7-ylsulfonyl]benzamide] here?
Answer: Its IC50 is 9.72 nM.

Question: With `CC(C)Oc1ccccc1[C@@H]1CN(Cc2ccc(N3CCOC[C@@H]3C)nc2)CCN1C1CC2(CCN(c3ccc(C(=O)NS(=O)(=O)c4cc5c(c([N+](=O)[O-])c4)N[C@H](C4CCOCC4)CO5)c(N4c5cc6cc[nH]c6nc5O[C@H]5COCC[C@@H]54)c3)CC2)C1` [Example 260, 2-[(3R,8S)-2,5-dioxa-9,15,17-triazatetracyclo[8.7.0.0^{3,8}.0^{12,16}]heptadeca-1(10),11,13,16-tetraen-9-yl]-4-{2-[(2R)-2-(2-isopropoxyphenyl)-4-({6-[(3S)-3-methylmorpholin-4-yl]pyridin-3-yl}methyl)piperazin-1-yl]-7-azaspiro[3.5]nonan-7-yl}-N-[(3R)-5-nitro-3-(oxan-4-yl)-3,4-dihydro-2H-1,4-benzoxazin-7-ylsulfonyl]benzamide] as the compound, how does the IC50 [1, 13] read?
Answer: Its IC50 is 8.65 nM.

Question: With `CC(C)Oc1ccccc1[C@@H]1CN(Cc2ccc(C(F)(F)F)nc2)CCN1C1CC2(CCN(c3ccc(C(=O)NS(=O)(=O)c4cc5c(c([N+](=O)[O-])c4)N[C@H](C4CCOCC4)CO5)c(N4c5cc6cc[nH]c6nc5O[C@H]5COCC[C@@H]54)c3)CC2)C1` [Example 261, 2-[(3R,8S)-2,5-dioxa-9,15,17-triazatetracyclo[8.7.0.0^{3,8}.0^{12,16}]heptadeca-1(10),11,13,16-tetraen-9-yl]-4-{2-[(2R)-2-(2-isopropoxyphenyl)-4-{[6-(trifluoromethyl)pyridin-3-yl]methyl}piperazin-1-yl]-7-azaspiro[3.5]nonan-7-yl}-N-[(3R)-5-nitro-3-(oxan-4-yl)-3,4-dihydro-2H-1,4-benzoxazin-7-ylsulfonyl]benzamide] as the compound, how does the IC50 [1, 13] read?
Answer: The IC50 was 3.87 nM.

Question: With `CC(C)Oc1ccccc1[C@@H]1CN(Cc2ccc(C#N)nc2)CCN1C1CC2(CCN(c3ccc(C(=O)NS(=O)(=O)c4cc5c(c([N+](=O)[O-])c4)N[C@H](C4CCOCC4)CO5)c(N4c5cc6cc[nH]c6nc5O[C@H]5COCC[C@@H]54)c3)CC2)C1` [Example 262, 4-{2-[(2R)-4-[(6-cyanopyridin-3-yl)methyl]-2-(2-isopropoxyphenyl)piperazin-1-yl]-7-azaspiro[3.5]nonan-7-yl}-2-[(3R,8S)-2,5-dioxa-9,15,17-triazatetracyclo[8.7.0.0^{3,8}.0^{12,16}]heptadeca-1(10),11,13,16-tetraen-9-yl]-N-[(3R)-5-nitro-3-(oxan-4-yl)-3,4-dihydro-2H-1,4-benzoxazin-7-ylsulfonyl]benzamide] as the compound, how does the IC50 [1, 13] read?
Answer: The IC50 was 6.43 nM.
